Results from the supplement of paper PMC11451515.

Assays:
Conditions in all cases: 48 h
NOMO1 [1] = experiment: cell viability relative to DMSO control; higher = less cytotoxic
In short: (§1)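 Library compounds in DMSO were pin-dosed into 1536-well plates (5 μl) holding NOMO1 or SEM (500 cells/well) or P12-Ichikawa (1000 cells/well) leukemia cells, across an 11-point threefold series of 47 μM to 0.79 nM. Each cell line had been adapted for at least four passages in each medium. CellTiter-Glo One luminescence was read after 48 h at 37°C. Viability is the per-plate percentage relative to DMSO wells, with cell-free wells as background.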

SEM cells [2] = experiment: as above
In short: as §1

P12-Ichikawa [3] = experiment: as above
In short: as §1

NOMO1 [4] = experiment: AUC of viability dose-response curve (% viability x log10 dose units); higher = less sensitive
In short: (§2)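 Viability of medium-adapted leukemia cells was measured by CellTiter-Glo One luminescence after 48 h at 37°C with library compounds in DMSO. Doses were 11 threefold steps from 47 μM to 0.79 nM, in 1536-well plates at 500 or 1000 cells/well. Signals were normalised per plate to DMSO and cell-free wells and fitted with a four-parameter log-logistic model on log10 dose. Area under the curve was integrated by trapezoidal rule, with curves exceeding full viability scaled and failed quality-control curves removed.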

SEM cells [5] = experiment: as above
In short: as §2

P12-Ichikawa [6] = experiment: as above
In short: as §2

Cc1nc2ccc(CN(C)c3ccc(C(=O)N[C@@H](CCC(=O)O)C(=O)O)s3)cc2c(=O)[nH]1
cell viability [%]
Conditions	NOMO1 [1]	P12-Ichikawa [3]	SEM cells [2]
HPLM + 10% dialyzed FBS, 0.000781 µM	110	119	90.3
HPLM + 10% dialyzed FBS, 0.00234 µM	120	119	93.1
HPLM + 10% dialyzed FBS, 0.00702 µM	101	118	101
HPLM + 10% dialyzed FBS, 0.0211 µM	111	118	103
HPLM + 10% dialyzed FBS, 0.0632 µM	99	120	64.1
HPLM + 10% dialyzed FBS, 0.19 µM	53.3	56.7	45
HPLM + 10% dialyzed FBS, 0.569 µM	46	42.2	41.4
HPLM + 10% dialyzed FBS, 1.71 µM	44.8	26.5	42.7
HPLM + 10% dialyzed FBS, 5.12 µM	41.6	24.9	35.4
HPLM + 10% dialyzed FBS, 15.4 µM	41.6	25.9	39.3
HPLM + 10% dialyzed FBS, 46.1 µM	38.7	21.4	38.3
RPMI 5 mM glucose + 10% FBS, 0.000781 µM	120	112	96.5
RPMI 5 mM glucose + 10% FBS, 0.00234 µM	113	117	115
RPMI 5 mM glucose + 10% FBS, 0.00702 µM	105	126	103
RPMI 5 mM glucose + 10% FBS, 0.0211 µM	112	115	104
RPMI 5 mM glucose + 10% FBS, 0.0632 µM	100	113	118
RPMI 5 mM glucose + 10% FBS, 0.19 µM	114	97	99
RPMI 5 mM glucose + 10% FBS, 0.569 µM	94.5	66.2	93
RPMI 5 mM glucose + 10% FBS, 1.71 µM	72.2	42.6	85.6
RPMI 5 mM glucose + 10% FBS, 5.12 µM	71.8	38.2	83.3
RPMI 5 mM glucose + 10% FBS, 15.4 µM	75.7	35.1	82.1
RPMI 5 mM glucose + 10% FBS, 46.1 µM	73.1	31.7	82.1
RPMI 5 mM glucose + 10% dialyzed FBS, 0.000781 µM	116	106	98.7
RPMI 5 mM glucose + 10% dialyzed FBS, 0.00234 µM	109	116	113
RPMI 5 mM glucose + 10% dialyzed FBS, 0.00702 µM	104	105	113
RPMI 5 mM glucose + 10% dialyzed FBS, 0.0211 µM	120	119	118
RPMI 5 mM glucose + 10% dialyzed FBS, 0.0632 µM	108	108	106
RPMI 5 mM glucose + 10% dialyzed FBS, 0.19 µM	70.9	88.9	45.9
RPMI 5 mM glucose + 10% dialyzed FBS, 0.569 µM	37.6	60.8	33.2
RPMI 5 mM glucose + 10% dialyzed FBS, 1.71 µM	25.6	32.4	35.3
RPMI 5 mM glucose + 10% dialyzed FBS, 5.12 µM	33	28.5	29.6
RPMI 5 mM glucose + 10% dialyzed FBS, 15.4 µM	33.1	27.8	32.4
RPMI 5 mM glucose + 10% dialyzed FBS, 46.1 µM	32.1	26.9	30.5

AUC of viability dose-response curve
Conditions	NOMO1 [4]	P12-Ichikawa [6]	SEM cells [5]
HPLM + 10% dialyzed FBS	315	287	298
RPMI 5 mM glucose + 10% FBS	413	331	432
RPMI 5 mM glucose + 10% dialyzed FBS	305	321	295

CNC(=O)c1nn(C)c2c1C(C)(C)Cc1cnc(Nc3ccc(N4CCN(C)CC4)cc3)nc1-2
cell viability [%]
Conditions	NOMO1 [1]	P12-Ichikawa [3]	SEM cells [2]
HPLM + 10% dialyzed FBS, 0.000781 µM	125	106	108
HPLM + 10% dialyzed FBS, 0.00234 µM	108	107	101
HPLM + 10% dialyzed FBS, 0.00702 µM	104	112	103
HPLM + 10% dialyzed FBS, 0.0211 µM	104	105	93
HPLM + 10% dialyzed FBS, 0.0632 µM	99.7	108	89.1
HPLM + 10% dialyzed FBS, 0.19 µM	113	111	64.6
HPLM + 10% dialyzed FBS, 0.569 µM	103	108	39.3
HPLM + 10% dialyzed FBS, 1.71 µM	65.8	83.7	16
HPLM + 10% dialyzed FBS, 5.12 µM	55.6	76	12
HPLM + 10% dialyzed FBS, 15.4 µM	47.8	36.7	7.99
HPLM + 10% dialyzed FBS, 46.1 µM	8.74	35.6	7.09
RPMI 5 mM glucose + 10% FBS, 0.000781 µM	111	113	115
RPMI 5 mM glucose + 10% FBS, 0.00234 µM	114	113	97.1
RPMI 5 mM glucose + 10% FBS, 0.00702 µM	103	119	113
RPMI 5 mM glucose + 10% FBS, 0.0211 µM	107	123	104
RPMI 5 mM glucose + 10% FBS, 0.0632 µM	115	117	86.5
RPMI 5 mM glucose + 10% FBS, 0.19 µM	111	120	67.4
RPMI 5 mM glucose + 10% FBS, 0.569 µM	100	109	48.8
RPMI 5 mM glucose + 10% FBS, 1.71 µM	86.6	79	13.8
RPMI 5 mM glucose + 10% FBS, 5.12 µM	78.8	65.4	8.18
RPMI 5 mM glucose + 10% FBS, 15.4 µM	48.3	44.8	5.66
RPMI 5 mM glucose + 10% FBS, 46.1 µM	13.2	26.4	2.21
RPMI 5 mM glucose + 10% dialyzed FBS, 0.000781 µM	113	107	97.9
RPMI 5 mM glucose + 10% dialyzed FBS, 0.00234 µM	102	119	101
RPMI 5 mM glucose + 10% dialyzed FBS, 0.00702 µM	107	123	101
RPMI 5 mM glucose + 10% dialyzed FBS, 0.0211 µM	106	123	110
RPMI 5 mM glucose + 10% dialyzed FBS, 0.0632 µM	118	110	78.6
RPMI 5 mM glucose + 10% dialyzed FBS, 0.19 µM	108	115	69.5
RPMI 5 mM glucose + 10% dialyzed FBS, 0.569 µM	103	95.9	47.2
RPMI 5 mM glucose + 10% dialyzed FBS, 1.71 µM	75.6	77.1	16.8
RPMI 5 mM glucose + 10% dialyzed FBS, 5.12 µM	66	61.9	9.79
RPMI 5 mM glucose + 10% dialyzed FBS, 15.4 µM	46.8	36.1	7.03
RPMI 5 mM glucose + 10% dialyzed FBS, 46.1 µM	8.73	35.3	4.75

AUC of viability dose-response curve
Conditions	NOMO1 [4]	P12-Ichikawa [6]	SEM cells [5]
HPLM + 10% dialyzed FBS	371	404	269
RPMI 5 mM glucose + 10% FBS	400	384	265
RPMI 5 mM glucose + 10% dialyzed FBS	386	376	275
